The results in this text go back to ChEMBL document CHEMBL3102727, “Conformationally constrained ortho-anilino diaryl ureas: discovery of 1-(2-(1'-neopentylspiro[indoline-3,4'-piperidine]-1-yl)phenyl)-3-(4-(trifluoromethoxy)phenyl)urea, a potent, selective, and bioavailable P2Y1 antagonist” (J Med Chem, 2013).

Structures are written as SMILES. In brackets after ≈: the same amount, converted by molar mass. Activity calls are given as the source filed them. The calls are words filed in the database; no cut-off is given here. Where only a bound is given, the exact number is not on record here.

Data set [1] concerns the target T1, P2Y purinoceptor 1 (Homo sapiens, UniProt P47900). In words: Antagonist activity at P2Y1 receptor in platelet-enriched human plasma assessed as 2.5 uM ADP-induced platelet aggregation preincubated for 1 min followed by ADP induction measured at 5 mins by aggregometric analysis.
Data set [2] concerns the target T1, P2Y purinoceptor 1. In words: Displacement of [33P]-2MeS-ADP from human P2Y1 receptor expressed in HEK293 cells after 1 hr by scintillation counting analysis. Type of data set: cell-based.
The nature of data set [3]: Aqueous solubility of the amorphous form of compound in phosphate buffer at pH 6.5. The format is physicochemical.
Data set [4] addresses T1, P2Y purinoceptor 1. In words: Antagonist activity at P2Y1 receptor in washed human platelets assessed as 1 uM 2-methylthio-ADP-induced calcium flux by FLIPR assay. Type of data set: functional.
A short description of data set [5]: Aqueous solubility of the crystalline form of compound in phosphate buffer at pH 6.5. Type of data set: physicochemical.
Data set [6] can be described thus: Partition coefficient, log P of the compound at pH 7 by reversed-phase HPLC method. Particulars: octanol/water. The format is physicochemical.
Data set [7] in a line: Aqueous solubility of the of partial crystalline form of compound in phosphate buffer at pH 6.5. Type of data set: physicochemical.
The nature of data set [8]: Metabolic stability in rat liver microsomes assessed as compound remaining after 10 mins. Type of data set: ADME. Particulars: read-out: Stability. On the technique in general: Liver microsomes are a subcellular fraction often used to study metabolism.
Data set [9] is described as follows: Metabolic stability in human liver microsomes assessed as compound remaining after 10 mins. Type of data set: ADME. Particulars: read-out: Stability.
The nature of data set [10]: Metabolic stability in mouse liver microsomes assessed as compound remaining after 10 mins. Type of data set: ADME, Microsome. Particulars: read-out: Stability.

T1 sequence (P47900 whole entry): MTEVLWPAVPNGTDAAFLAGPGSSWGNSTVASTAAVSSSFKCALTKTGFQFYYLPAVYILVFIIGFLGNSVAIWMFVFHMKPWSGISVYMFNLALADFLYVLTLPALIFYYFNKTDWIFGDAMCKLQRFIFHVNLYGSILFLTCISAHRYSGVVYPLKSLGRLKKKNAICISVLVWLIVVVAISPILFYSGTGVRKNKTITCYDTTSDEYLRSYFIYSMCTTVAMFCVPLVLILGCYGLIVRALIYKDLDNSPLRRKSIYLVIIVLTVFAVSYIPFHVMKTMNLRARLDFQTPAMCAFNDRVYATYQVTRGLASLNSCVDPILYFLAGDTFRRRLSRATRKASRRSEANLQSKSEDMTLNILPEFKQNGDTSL

Consider `O=C(Nc1ccc(OC(F)(F)F)cc1)Nc1cccnc1-c1cc2ccccc2[nH]1`, for which the result on P2Y purinoceptor 1 [1] was inactive. Besides, on P2Y purinoceptor 1 [2], the half-maximal inhibitory concentration (IC50) worked out at 227 nM.

As to `O=C(Nc1ccc(OC(F)(F)F)cc1)Nc1ccccc1N1CC2(CCCCC2)c2ccccc21`, the solubility in data set [3] was below 1 µg/mL. Also, at P2Y purinoceptor 1 [2], the Ki was 5.9 nM. The half-inhibitory concentration (IC50) at P2Y purinoceptor 1 [4] was 2.2 nM.

Take `O=C(Nc1ccc(OC(F)(F)F)cc1)Nc1ccccc1-c1cc2ccccc2[nH]1`: the outcome at P2Y purinoceptor 1 [1] was inactive. For the same molecule, on P2Y purinoceptor 1 [2], the half-inhibitory concentration (IC50) was determined as 75 nM.

`COC(=O)N1CCC2(CC1)CN(c1ccccc1NC(=O)Nc1ccc(OC(F)(F)F)cc1)c1ccccc12`: the solubility in data set [5] turned out to be 1 µg/mL (≈ 1.85 µM). The molecule further yielded a Ki on P2Y purinoceptor 1 [2] of 13.3 nM. In [6], this molecule had a logP of 6.

The molecule `CC(C)(C)CN1CCC2(CC1)CN(c1ccccc1NC(=O)Nc1ccc(OC(F)(F)F)cc1)c1ccncc12` returned a solubility in [3] of 428 µg/mL (≈ 773 µM). The inhibition constant Ki on P2Y purinoceptor 1 [2] came out at 617 nM. In addition, in data set [6], the logP was 5.1. Besides, on P2Y purinoceptor 1 [4], the concentration for half-maximal inhibition (IC50) came to 346 nM.

The molecule `CC(C)NC(=O)N1CCC2(CC1)CN(c1ccccc1NC(=O)Nc1ccc(OC(F)(F)F)cc1)c1ccccc12` displayed a solubility in data set [7] of 1 µg/mL (≈ 1.76 µM). Besides, the affinity on P2Y purinoceptor 1 [2] corresponds to a Ki of 200 nM. In [6], this molecule returned a logP of 5.7.

In turn, `CC1(C)CN(c2ncccc2NC(=O)Nc2ccc(OC(F)(F)F)cc2)c2ccccc21` gave an inhibitory constant (Ki) at P2Y purinoceptor 1 [2] of 20.3 nM.

Regarding `O=C(Nc1ccc(OC(F)(F)F)cc1)Nc1ccccc1N1CC2(CCNCC2)c2ccccc21`, the concentration in solution in data set [7] (solubility) came to 84 µg/mL (≈ 174 µM). On P2Y purinoceptor 1 [2], this molecule gave a Ki of 4500 nM. Besides, the log partition coefficient (logP) in data set [6] turned out to be 4.3.

On to `CC(C)CN1CCC2(CC1)CN(c1ccccc1NC(=O)Nc1ccc(OC(F)(F)F)cc1)c1ccccc12`, for which the remaining at 10 min in [8] was 84%; in [9], 79%. The molecule further had a solubility in [7] of 7 µg/mL (≈ 13 µM). This molecule yielded an inhibitory constant (Ki) at P2Y purinoceptor 1 [2] of 20.7 nM. In data set [6], this molecule displayed a lipophilicity (logP) of 5.5.

On P2Y purinoceptor 1 [2], `O=C(Nc1ccc(OC(F)(F)F)cc1)Nc1ccccc1N1CC2(CCCC2)c2ccccc21` showed an inhibition constant Ki of 6.6 nM.

`COCCN1CCC2(CC1)CN(c1ccccc1NC(=O)Nc1ccc(OC(F)(F)F)cc1)c1ccccc12`: the solubility in data set [3] worked out at 66 µg/mL (≈ 122 µM). For the same molecule, on P2Y purinoceptor 1 [2], the affinity corresponds to a Ki of 390 nM. The molecule further gave a logP in data set [6] of 5.1.

In turn, `CC(C)(C)CN1CCC2(CC1)CN(c1ccccc1NC(=O)Nc1ccc(OC(F)(F)F)cc1)c1cccnc12` had a solubility in data set [3] of 5 µg/mL (≈ 9.03 µM). Besides, the affinity at P2Y purinoceptor 1 [2], expressed as Ki, was 28.7 nM. Besides, the log partition coefficient (logP) in data set [6] is listed as above 6.2.

As to `CN1CCC2(CC1)CN(c1ccccc1NC(=O)Nc1ccc(OC(F)(F)F)cc1)c1ccccc12`, in [3], the concentration in solution (solubility) came to 100 µg/mL (≈ 201 µM). On P2Y purinoceptor 1 [2], this molecule displayed an inhibition constant (Ki) of 690 nM. Further, the lipophilicity (logP) in [6] is 4.6.

Consider `CC(C)(C)CN1CCC2(CC1)CCN(c1ccccc1NC(=O)Nc1ccc(OC(F)(F)F)cc1)c1ccccc12`, for which the remaining at 10 min in data set [8] came out at 87%; in data set [9], 90%. In data set [3], this molecule yielded a solubility of 16 µg/mL (≈ 28.2 µM). For the same molecule, the Ki at P2Y purinoceptor 1 [2] came out at 4.6 nM. In addition, the logP in data set [6] is above 6.2. Further, the half-maximal inhibitory concentration (IC50) at P2Y purinoceptor 1 [4] was found to be 9.9 nM.

`O=C(Nc1ccc(OC(F)(F)F)cc1)Nc1ccccc1N1CCCc2ccccc21` showed a Ki at P2Y purinoceptor 1 [2] of 36.5 nM.

`O=C(Nc1ccc(OC(F)(F)F)cc1)Nc1ccccc1N1CC2(CCC2)c2ccccc21`: the affinity on P2Y purinoceptor 1 [2] corresponds to a Ki of 7.6 nM. Moreover, on P2Y purinoceptor 1 [4], the half-maximal inhibitory concentration (IC50) came to 10.5 nM.

In turn, `O=C(Nc1ccc(OC(F)(F)F)cc1)Nc1ccccc1N1CC2(CC2)c2ccccc21` returned an inhibition constant (Ki) at P2Y purinoceptor 1 [2] of 26 nM.

In the case of `O=C(Nc1ccc(OC(F)(F)F)cc1)Nc1ccccc1N1CCOc2ccccc21`, on P2Y purinoceptor 1 [2], the Ki was found to be 65 nM. In [6], the lipophilicity (logP) came out at 5.7.

In the case of `CC(C)(C)CN1CCC2(CC1)CN(c1ccccc1NC(=O)Nc1ccc(OC(F)(F)F)cc1)c1cnccc12`, the remaining at 10 min in data set [8] came to 73%; in data set [9], 67%. Also, the solubility in data set [3] was 25 µg/mL (≈ 45.2 µM). On P2Y purinoceptor 1 [2], this molecule had a Ki of 11.5 nM. In addition, the logP in data set [6] is recorded as above 6. In addition, the half-maximal inhibitory concentration (IC50) at P2Y purinoceptor 1 [4] is 10.7 nM.

`CC(C)(C)CN1CCC2(C1)CN(c1ccccc1NC(=O)Nc1ccc(OC(F)(F)F)cc1)c1ccccc12` (stereo unspecified): the concentration in solution in data set [3] (solubility) came to 1 µg/mL (≈ 1.86 µM). The Ki on P2Y purinoceptor 1 [2] was 5.8 nM. Also, the logP in data set [6] was above 6.2.

As to `CC(C)(C)CN1CCCC2(C1)CN(c1ccccc1NC(=O)Nc1ccc(OC(F)(F)F)cc1)c1ccccc12` (stereo unspecified), in data set [3], the solubility was below 1 µg/mL. In addition, the affinity on P2Y purinoceptor 1 [2] corresponds to a Ki of 12.8 nM. For the same molecule, the logP in data set [6] was above 6.2.

With `CC(C)(C)CN1CCC2(CC1)CN(c1ccccc1NC(=O)Nc1ccc(OC(F)(F)F)cc1)c1ncccc12`, the inhibitory constant (Ki) at P2Y purinoceptor 1 [2] turned out to be 253 nM. Moreover, the concentration for half-maximal inhibition (IC50) on P2Y purinoceptor 1 [4] was determined as 503 nM.

`O=C(Nc1ccc(OC(F)(F)F)cc1)Nc1ccccc1N1CC2(CCN(C(=O)OCc3ccccc3)CC2)c2ccccc21`: the affinity on P2Y purinoceptor 1 [2] corresponds to a Ki of 36.6 nM. For the same molecule, at P2Y purinoceptor 1 [4], the IC50 worked out at 5.9 nM.

As for `CC(C)N1CCC2(CC1)CN(c1ccccc1NC(=O)Nc1ccc(OC(F)(F)F)cc1)c1ccccc12`, the concentration in solution in [7] (solubility) was 71 µg/mL (≈ 135 µM). In data set [6], this molecule registered a logP of 4.5.

For the molecule `O=C(Nc1ccc(OC(F)(F)F)cc1)Nc1ccccc1N1CC2(CCN(Cc3ccccc3)CC2)c2ccccc21`, in data set [7], the solubility was below 1 µg/mL. The molecule further registered an inhibition constant (Ki) at P2Y purinoceptor 1 [2] of 18.6 nM. In addition, in data set [6], the lipophilicity (logP) was above 6.3.

On P2Y purinoceptor 1 [2], `CC1(C)CCN(c2ncccc2NC(=O)Nc2ccc(OC(F)(F)F)cc2)c2ccccc21` showed a Ki of 16 nM.

Take `CC1(C)CCN(c2ccccc2NC(=O)Nc2ccc(OC(F)(F)F)cc2)c2ccccc21`: the remaining at 10 min in data set [8] was 6%; in data set [10] it was 63%; in data set [9] it was 51%. The affinity on P2Y purinoceptor 1 [2] corresponds to a Ki of 7.3 nM. The logP in data set [6] is listed as above 6.2.

As to `CN1CCN(c2ccccc2NC(=O)Nc2ccc(OC(F)(F)F)cc2)c2ccccc21`, at P2Y purinoceptor 1 [2], the inhibition constant (Ki) came to 94 nM. The logP in data set [6] was 5.5.

Molecule `CC1(C)CN(c2ccccc2NC(=O)Nc2ccc(OC(F)(F)F)cc2)c2ccccc2O1` yielded a Ki at P2Y purinoceptor 1 [2] of 39 nM.

With `CC1CCN(c2ccccc2NC(=O)Nc2ccc(OC(F)(F)F)cc2)c2ccccc21` (stereo unspecified), the Ki on P2Y purinoceptor 1 [2] came out at 29.5 nM.

In data set [7], `O=C(Nc1ccc(OC(F)(F)F)cc1)Nc1ccccc1N1CC2(CCN(CCO)CC2)c2ccccc21` returned a solubility of 123 µg/mL (≈ 234 µM). In addition, affinity at P2Y purinoceptor 1 [2] was put at a Ki of 4500 nM. Moreover, the logP in [6] is on record as 4.6.

On to `O=C(O)CN1CCC2(CC1)CN(c1ccccc1NC(=O)Nc1ccc(OC(F)(F)F)cc1)c1ccccc12`, for which, in data set [3], the concentration in solution (solubility) came to 5 µg/mL (≈ 9.25 µM). The molecule also showed a Ki at P2Y purinoceptor 1 [2] of 13500 nM. The molecule also registered a log partition coefficient (logP) in data set [6] of 4.4.

Consider `O=C(Nc1ccc(OC(F)(F)F)cc1)Nc1ccccc1N1CCCCc2ccccc21`, for which, on P2Y purinoceptor 1 [2], the Ki was found to be 830 nM.

One may read the IC50 as the concentration at which inhibition is half-maximal. For orientation: solubility means how much of the substance goes into solution per volume. The low end stands for a poorly soluble substance, the high end for a readily soluble substance. The Ki is a measure of affinity in units of concentration, obtained from inhibition or displacement. A low value points to a stronger hold on the target. As usually defined, the logP is the decadic logarithm of the partition coefficient of the neutral form, usually between octanol and water.
